Results on six molecules are retold here after patent US12624044B2, “SMARCA degraders and uses thereof” (Kymera Therapeutics, Inc., priority 2019, dated 2026).

One assay deals with T1, SMARCA4 (Homo sapiens, UniProt P51532).
T1 construct: SMARCA2 and SMARCA4 protein degradation in MV4-11 cells; endogenous in cells; host or cells: MV4-11
As to the kind of experiment: SMARCA4 Western blot MV4-11 degradation. The class given is cell-based. Particulars: 24 h; for Dmax: MV4-11, MV4-11 cells, read-out: SMARCA4 WB MV411 degradation 24 h: Average Dmax %; for DC50: MV4-11 cells, read-out: SMARCA4 WB MV411 degradation 24 h: Average external-Abs DC50. In a few lines:
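MV4-11 cells treated with compound for 24 h, lysed in RIPA with protease/phosphatase inhibitors, and SMARCA2 and SMARCA4 (BRG1) levels assessed by Western blot with β-actin loading control and LI-COR fluorescent read-out. Maximal degradation (Dmax %) after 24 h binned into letter codes.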

For the next assay, the target named is SMARCA2 (Homo sapiens, UniProt P51531). As to the kind of experiment: MSD SMARCA2 degradation in A549 cell line. Format: cell-based. The conditions noted are these: 24 h; for Dmax: A549, A549 cells; for DC50: A549 cells, read-out: SMARCA2 MSD A549 degradation 24 h: Average external-Abs DC50. An outline of the steps:
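SMARCA2 remaining was measured by MSD electrochemiluminescence on RIPA lysates (anti-SMARCA2 plus SULFO-TAG anti-rabbit). Prior exposure: 24 h of A549 cells to a 10-point, 3-fold dilution series topping at 1000 nM final; Dmax % given as graded codes.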

As usually defined, the Dmax is the largest share of the target that was removed. One may read the DC50 as the concentration at which degradation of the target reaches its halfway point.

A value given as a limit tells only on which side of the number the result lay.

T1 sequence (P51532 whole entry): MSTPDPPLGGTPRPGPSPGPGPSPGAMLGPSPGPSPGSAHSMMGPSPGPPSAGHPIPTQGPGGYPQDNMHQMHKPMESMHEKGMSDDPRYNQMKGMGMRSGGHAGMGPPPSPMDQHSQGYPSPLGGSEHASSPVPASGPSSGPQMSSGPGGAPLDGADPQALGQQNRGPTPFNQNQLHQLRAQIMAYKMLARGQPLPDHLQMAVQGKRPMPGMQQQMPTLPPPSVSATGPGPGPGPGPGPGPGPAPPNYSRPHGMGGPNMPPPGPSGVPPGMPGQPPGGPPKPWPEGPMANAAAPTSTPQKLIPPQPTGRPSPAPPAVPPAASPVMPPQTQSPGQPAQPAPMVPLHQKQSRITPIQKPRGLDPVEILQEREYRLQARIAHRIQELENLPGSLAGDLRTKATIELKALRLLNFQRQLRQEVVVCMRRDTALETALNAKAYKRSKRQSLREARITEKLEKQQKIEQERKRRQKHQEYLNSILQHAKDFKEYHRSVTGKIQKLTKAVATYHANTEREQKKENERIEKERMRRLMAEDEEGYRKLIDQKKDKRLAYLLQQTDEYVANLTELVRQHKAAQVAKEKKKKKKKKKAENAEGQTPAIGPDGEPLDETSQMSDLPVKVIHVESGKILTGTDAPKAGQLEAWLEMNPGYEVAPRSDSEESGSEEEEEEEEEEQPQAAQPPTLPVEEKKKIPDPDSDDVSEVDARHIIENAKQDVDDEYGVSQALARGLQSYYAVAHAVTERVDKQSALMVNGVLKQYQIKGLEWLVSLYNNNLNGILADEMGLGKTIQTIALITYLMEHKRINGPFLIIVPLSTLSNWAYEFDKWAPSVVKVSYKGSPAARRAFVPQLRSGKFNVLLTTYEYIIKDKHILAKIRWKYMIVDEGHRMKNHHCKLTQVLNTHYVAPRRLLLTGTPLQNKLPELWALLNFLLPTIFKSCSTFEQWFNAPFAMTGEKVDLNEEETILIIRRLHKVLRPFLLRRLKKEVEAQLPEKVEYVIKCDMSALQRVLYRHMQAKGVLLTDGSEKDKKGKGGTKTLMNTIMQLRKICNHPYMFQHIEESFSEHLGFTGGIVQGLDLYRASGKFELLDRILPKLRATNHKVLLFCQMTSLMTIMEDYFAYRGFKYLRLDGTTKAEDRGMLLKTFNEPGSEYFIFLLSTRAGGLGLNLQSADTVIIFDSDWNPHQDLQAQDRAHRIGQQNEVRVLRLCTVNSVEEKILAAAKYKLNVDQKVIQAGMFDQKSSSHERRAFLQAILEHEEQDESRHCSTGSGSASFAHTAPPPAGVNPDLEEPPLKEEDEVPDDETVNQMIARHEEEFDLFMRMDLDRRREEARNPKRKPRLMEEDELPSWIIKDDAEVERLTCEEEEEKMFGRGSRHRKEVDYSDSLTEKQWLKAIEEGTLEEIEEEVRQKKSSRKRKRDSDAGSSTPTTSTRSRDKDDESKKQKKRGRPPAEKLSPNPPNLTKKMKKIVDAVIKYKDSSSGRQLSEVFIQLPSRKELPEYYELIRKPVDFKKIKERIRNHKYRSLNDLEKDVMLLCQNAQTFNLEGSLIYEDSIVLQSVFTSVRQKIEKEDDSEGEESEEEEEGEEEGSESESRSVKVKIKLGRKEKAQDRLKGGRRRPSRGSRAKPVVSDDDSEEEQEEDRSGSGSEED
Chain of SMARCA2 (P51531 whole entry): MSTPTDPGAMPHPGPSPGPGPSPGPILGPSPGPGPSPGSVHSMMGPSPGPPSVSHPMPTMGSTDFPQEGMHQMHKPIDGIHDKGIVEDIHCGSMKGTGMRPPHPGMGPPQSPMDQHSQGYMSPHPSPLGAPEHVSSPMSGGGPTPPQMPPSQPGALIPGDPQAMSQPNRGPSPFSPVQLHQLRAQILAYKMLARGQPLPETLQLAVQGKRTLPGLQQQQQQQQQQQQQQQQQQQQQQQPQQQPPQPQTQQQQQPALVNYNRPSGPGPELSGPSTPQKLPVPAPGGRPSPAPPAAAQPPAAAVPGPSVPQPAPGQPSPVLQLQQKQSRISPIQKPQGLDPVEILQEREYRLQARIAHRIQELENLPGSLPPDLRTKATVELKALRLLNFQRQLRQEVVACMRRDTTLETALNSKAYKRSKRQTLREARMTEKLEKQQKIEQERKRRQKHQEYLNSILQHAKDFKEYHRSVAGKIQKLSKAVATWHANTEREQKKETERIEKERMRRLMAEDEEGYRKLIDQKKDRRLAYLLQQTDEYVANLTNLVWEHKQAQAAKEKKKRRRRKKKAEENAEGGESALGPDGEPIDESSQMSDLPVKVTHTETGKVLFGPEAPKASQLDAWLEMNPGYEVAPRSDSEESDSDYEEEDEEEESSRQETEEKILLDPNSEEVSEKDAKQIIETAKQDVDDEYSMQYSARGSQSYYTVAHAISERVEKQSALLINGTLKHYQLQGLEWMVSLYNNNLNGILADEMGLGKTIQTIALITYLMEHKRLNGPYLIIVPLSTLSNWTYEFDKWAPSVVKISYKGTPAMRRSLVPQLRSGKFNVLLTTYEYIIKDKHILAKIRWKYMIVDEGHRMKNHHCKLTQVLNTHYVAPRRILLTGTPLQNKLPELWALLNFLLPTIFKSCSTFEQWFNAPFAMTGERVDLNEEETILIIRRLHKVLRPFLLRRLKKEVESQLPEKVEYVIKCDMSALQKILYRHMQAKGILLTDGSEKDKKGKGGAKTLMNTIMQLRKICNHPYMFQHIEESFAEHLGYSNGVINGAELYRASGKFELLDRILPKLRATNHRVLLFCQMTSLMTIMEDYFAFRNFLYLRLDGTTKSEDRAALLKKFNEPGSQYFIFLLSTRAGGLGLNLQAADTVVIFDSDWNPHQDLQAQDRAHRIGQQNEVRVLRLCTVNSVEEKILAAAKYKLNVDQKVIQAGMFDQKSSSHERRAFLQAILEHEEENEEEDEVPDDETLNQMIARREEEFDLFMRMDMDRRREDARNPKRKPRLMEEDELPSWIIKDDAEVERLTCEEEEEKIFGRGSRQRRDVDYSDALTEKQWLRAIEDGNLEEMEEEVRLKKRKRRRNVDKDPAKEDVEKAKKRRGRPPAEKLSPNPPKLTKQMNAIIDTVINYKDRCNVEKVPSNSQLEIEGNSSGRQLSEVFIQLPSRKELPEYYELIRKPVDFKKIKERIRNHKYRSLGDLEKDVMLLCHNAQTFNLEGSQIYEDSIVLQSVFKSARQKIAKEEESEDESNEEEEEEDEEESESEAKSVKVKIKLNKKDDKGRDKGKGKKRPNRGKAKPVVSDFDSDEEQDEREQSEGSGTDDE

Regarding `Cn1c(=O)n(C2CCC(=O)NC2=O)c2ccc(CCCCCCCc3nccc(N4C5CCC4CN(c4cc(-c6ccccc6O)nnc4N)C5)n3)cc21` (stereo not drawn) [I-287, 3-(5-(7-(4-(3-(3-amino-6-(2-hydroxyphenyl)pyridazin-4-yl)-3,8-diazabicyclo[3.2.1]octan-8-yl)pyrimidin-2-yl)heptyl)-3-methyl-2-oxo-2,3-dihydro-1H-benzo[d]imidazol-1-yl)piperidine-2,6-dione], on SMARCA4, the Dmax lay in the range of 50 to 70% and the DC50 was over 1000 nM. Further, at SMARCA2, the Dmax is 70 to 90% and the DC50 was 100 to 500 nM.
On the same counts, the results for `Cc1ncsc1-c1ccc(CNC(=O)[C@@H]2C[C@@H](O)CN2C(=O)[C@@H](NC(=O)[C@H]2CC[C@@H](c3cnc(N4C5CCC4CN(c4cc(-c6ccccc6O)nnc4N)C5)nc3)CC2)C(C)(C)C)cc1` [I-336] are over 90%, under 100 nM, over 90% and 100 to 500 nM.
The matching figures for `Cc1ncsc1-c1ccc(CNC(=O)[C@@H]2C[C@@H](O)CN2C(=O)[C@@H](NC(=O)[C@H]2CC[C@H](c3cnc(N4C5CCC4CN(c4cc(-c6ccccc6O)nnc4N)C5)nc3)CC2)C(C)(C)C)cc1` [I-337, (2S,4R)-1-((2S)-2-((1r,4S)-4-(2-(3-(3-amino-6-(2-hydroxyphenyl)pyridazin-4-yl)-3,8-diazabicyclo[3.2.1]octan-8-yl)pyrimidin-5-yl)cyclohexanecarboxamido)-3,3-dimethylbutanoyl)-4-hydroxy-N-(4-(4-methylthiazol-5-yl)benzyl)pyrrolidine-2-carboxamide]: over 90%, under 100 nM, over 90% and under 100 nM.
The matching figures for `Cc1ncsc1-c1ccc(CNC(=O)[C@@H]2C[C@@H](O)CN2C(=O)[C@@H](NC(=O)[C@H]2CC3(C2)C[C@H](N2CCC(n4cc(-c5cc(-c6ccccc6O)nnc5N)cn4)CC2)C3)C(C)(C)C)cc1` (stereo partly drawn) [I-389]: 70 to 90%, under 100 nM, over 90% and 100 to 500 nM.
For the molecule `Cc1ncsc1-c1ccc(CNC(=O)[C@@H]2C[C@@H](O)CN2C(=O)[C@@H](NC(=O)[C@H]2CC[C@@H](CN3CCC(n4cc(-c5cc(-c6ccccc6O)nnc5N)cn4)CC3)CC2)C(C)(C)C)cc1` [I-402], at SMARCA4, the Dmax was under 50% and the DC50 is over 1000 nM. For the same molecule, at SMARCA2, the Dmax lay within 70 to 90% and the half-maximal degradation concentration (DC50) is 100 to 500 nM.
The matching figures for `Cc1ncsc1-c1ccc(CNC(=O)[C@@H]2C[C@@H](O)CN2C(=O)[C@@H](NC(=O)[C@H]2CC[C@H](CN3CCC(n4cc(-c5cc(-c6ccccc6O)nnc5N)cn4)CC3)CC2)C(C)(C)C)cc1` [I-403]: under 50%, 501 to 1000 nM, over 90% and 100 to 500 nM.
